Measured values reported in patent US9890153B2, “Substituted 1H-pyrrolo [2, 3-b] pyridine and 1H-pyrazolo [3, 4-b] pyridine derivatives as salt inducible kinase 2 (SIK2) inhibitors” (Arrien Pharmaceuticals LLC, priority 2012, dated 2018).

Assays:
Type in all cases: biochemical
[1] = target: SIK2 (QIK) (SEQ ID NO: 11) (Homo sapiens, UniProt Q9H0K1); assay: SIK2 kinase assay (radiometric, 10 μM ATP); conditions: read-out: SIK2 (QIK) (SEQ ID NO: 11) kinase inhibition result
Procedure: Procedure: Enzyme was incubated with substrate peptide in reaction buffer in the presence and absence of test compounds or Staurosporine. All additions were done on ice, followed by the addition of ATP mix. Wells were uniformly mixed using an Eppendorff plate shaker and incubated at 30° C. for 20 min, and stopped by the addition of 5 μL of 3% phosphoric acid. Volume was increased to 100 μL by adding 0.8% phosphoric acid which was then transferred to PC filter mats (Millipore), pre-equilibrated with 70% ethanol and water. Plates were washed thrice with 100 μL 0.8% phosphoric acid and dried for an hour at 60° C.

SIK1 (SEQ ID NO: 10) = target: T1, SIK1 (SEQ ID NO: 10) (Homo sapiens, UniProt P57059); assay: Protein kinase assay, SIK1; conditions: read-out: SIK1 (SEQ ID NO: 10) kinase inhibition result
T1 construct: Reaction Biology Corporation (assay service, HotSpot panel)
T1 sequence (P57059 whole entry): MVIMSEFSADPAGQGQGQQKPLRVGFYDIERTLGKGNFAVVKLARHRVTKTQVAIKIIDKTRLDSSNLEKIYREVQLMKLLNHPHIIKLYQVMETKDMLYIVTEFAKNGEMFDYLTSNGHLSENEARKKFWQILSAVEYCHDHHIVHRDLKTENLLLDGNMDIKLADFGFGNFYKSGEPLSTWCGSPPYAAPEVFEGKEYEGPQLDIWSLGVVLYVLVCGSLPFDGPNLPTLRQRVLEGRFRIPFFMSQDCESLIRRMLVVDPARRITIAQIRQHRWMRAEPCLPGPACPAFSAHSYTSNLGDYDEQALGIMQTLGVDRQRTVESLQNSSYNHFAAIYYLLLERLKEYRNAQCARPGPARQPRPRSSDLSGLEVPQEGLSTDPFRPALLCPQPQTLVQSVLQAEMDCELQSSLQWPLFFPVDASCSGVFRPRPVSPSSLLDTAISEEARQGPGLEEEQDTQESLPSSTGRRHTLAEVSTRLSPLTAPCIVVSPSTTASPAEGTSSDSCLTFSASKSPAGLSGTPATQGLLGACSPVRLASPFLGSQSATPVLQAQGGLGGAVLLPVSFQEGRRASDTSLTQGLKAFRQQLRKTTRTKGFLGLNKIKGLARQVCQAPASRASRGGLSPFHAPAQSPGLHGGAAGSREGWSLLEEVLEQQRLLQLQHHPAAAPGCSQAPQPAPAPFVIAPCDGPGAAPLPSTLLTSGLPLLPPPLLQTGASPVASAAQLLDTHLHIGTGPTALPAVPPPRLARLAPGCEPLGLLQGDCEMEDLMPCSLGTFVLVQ
Procedure: (§1) Briefly, specific kinase/substrate pairs along with required cofactors were prepared in reaction buffer; 20 mM Hepes (pH 7.5), 10 mMmgCl2, 1 mM EGTA, 0.02% Brij35, 0.02 mg/ml BSA, 0.1 mM Na3VO4, 2 mM DTT, 1% DMSO. Compounds were delivered into the reaction, followed ˜20 min later by addition of a mixture of ATP (Sigma) and 33P ATP (PerkinElmer) to a final concentration of 10 μM. […] IC50 values and curve fits were obtained using Prism (GraphPad Software). Kinome tree representations were prepared using Kinome Mapper (http://www.reactionbiology.com/apps/kinome/mapper/LaunchKinome.htm).

[2] = target: T2, SIK3 (QSK) (SEQ ID NO: 24) (Homo sapiens, UniProt Q9Y2K2); assay: Protein kinase assay, SIK3; conditions: read-out: SIK3 (QSK) (SEQ ID NO: 24) kinase inhibition result
T2 construct: Reaction Biology Corporation (assay service, HotSpot panel)
T2 sequence (Q9Y2K2 whole entry): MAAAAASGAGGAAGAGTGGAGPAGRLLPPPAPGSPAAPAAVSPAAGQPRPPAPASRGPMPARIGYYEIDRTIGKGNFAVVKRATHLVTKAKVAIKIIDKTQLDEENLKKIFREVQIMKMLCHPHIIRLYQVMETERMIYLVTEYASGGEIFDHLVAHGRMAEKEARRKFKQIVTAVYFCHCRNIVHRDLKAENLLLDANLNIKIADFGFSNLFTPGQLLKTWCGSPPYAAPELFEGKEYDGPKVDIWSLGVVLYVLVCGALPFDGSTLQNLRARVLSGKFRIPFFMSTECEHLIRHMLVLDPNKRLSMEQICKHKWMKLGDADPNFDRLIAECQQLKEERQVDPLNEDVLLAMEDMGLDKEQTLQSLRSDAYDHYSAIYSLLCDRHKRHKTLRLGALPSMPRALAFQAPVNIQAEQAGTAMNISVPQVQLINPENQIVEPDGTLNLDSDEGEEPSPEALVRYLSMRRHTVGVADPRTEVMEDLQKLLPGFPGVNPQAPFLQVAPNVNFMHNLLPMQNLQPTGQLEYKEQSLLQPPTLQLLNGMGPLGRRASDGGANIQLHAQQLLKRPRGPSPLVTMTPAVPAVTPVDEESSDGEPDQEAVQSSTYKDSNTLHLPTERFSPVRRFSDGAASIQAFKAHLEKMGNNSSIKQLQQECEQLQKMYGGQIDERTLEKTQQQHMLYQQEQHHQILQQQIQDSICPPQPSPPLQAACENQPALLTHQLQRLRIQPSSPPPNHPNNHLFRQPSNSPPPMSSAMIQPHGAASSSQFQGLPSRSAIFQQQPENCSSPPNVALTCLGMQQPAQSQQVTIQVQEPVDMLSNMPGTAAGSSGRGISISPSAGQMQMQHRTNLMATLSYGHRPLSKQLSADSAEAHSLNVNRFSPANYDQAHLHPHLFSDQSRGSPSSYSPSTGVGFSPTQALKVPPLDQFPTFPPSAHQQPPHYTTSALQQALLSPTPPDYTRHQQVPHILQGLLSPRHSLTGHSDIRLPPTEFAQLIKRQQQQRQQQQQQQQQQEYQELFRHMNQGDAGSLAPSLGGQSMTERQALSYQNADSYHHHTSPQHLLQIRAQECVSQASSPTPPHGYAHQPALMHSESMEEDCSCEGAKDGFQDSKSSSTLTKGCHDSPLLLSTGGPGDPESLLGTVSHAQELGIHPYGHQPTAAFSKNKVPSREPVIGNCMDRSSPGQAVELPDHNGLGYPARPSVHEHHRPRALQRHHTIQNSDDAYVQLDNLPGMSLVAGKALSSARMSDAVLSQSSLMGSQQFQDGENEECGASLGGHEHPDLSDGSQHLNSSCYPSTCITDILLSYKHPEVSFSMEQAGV
Procedure: as §1

SIK2 (QIK) (SEQ ID NO: 11), sequence (Q9H0K1 whole entry): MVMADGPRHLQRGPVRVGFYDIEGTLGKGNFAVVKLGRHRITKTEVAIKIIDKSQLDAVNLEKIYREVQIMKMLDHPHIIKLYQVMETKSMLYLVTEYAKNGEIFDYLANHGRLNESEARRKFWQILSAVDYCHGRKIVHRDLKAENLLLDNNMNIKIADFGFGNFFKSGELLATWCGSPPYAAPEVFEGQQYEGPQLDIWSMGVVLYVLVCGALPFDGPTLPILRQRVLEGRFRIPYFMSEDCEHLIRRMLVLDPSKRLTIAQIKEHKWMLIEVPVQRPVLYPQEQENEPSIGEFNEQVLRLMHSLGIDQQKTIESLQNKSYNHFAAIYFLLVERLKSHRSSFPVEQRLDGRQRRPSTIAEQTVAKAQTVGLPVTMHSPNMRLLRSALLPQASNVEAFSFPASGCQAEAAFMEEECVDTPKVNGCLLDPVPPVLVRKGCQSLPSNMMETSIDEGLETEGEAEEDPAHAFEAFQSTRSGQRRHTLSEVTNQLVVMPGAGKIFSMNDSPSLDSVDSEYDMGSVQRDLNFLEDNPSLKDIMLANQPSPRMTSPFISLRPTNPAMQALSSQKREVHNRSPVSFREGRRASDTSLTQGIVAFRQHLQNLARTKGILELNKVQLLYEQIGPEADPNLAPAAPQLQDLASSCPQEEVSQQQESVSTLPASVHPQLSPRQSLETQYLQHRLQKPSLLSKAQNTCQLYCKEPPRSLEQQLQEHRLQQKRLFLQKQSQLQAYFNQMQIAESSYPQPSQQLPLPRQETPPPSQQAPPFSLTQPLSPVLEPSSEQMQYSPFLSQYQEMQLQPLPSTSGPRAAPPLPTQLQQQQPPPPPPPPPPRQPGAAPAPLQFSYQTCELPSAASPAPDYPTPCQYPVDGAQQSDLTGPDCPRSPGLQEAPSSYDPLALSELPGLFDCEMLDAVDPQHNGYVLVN

Row | Structure (SMILES) | IC50 [1] [nM] | IC50 (SIK1 (SEQ ID NO: 10)) [nM] | IC50 [2] [nM]
1 | FC1(F)Oc2ccc(-c3c[nH]c4ncc(-c5cnc(N6CCOCC6)s5)cc34)cc2O1 [Example 201, 4-(5-(3-(2,2-difluorobenzo[d][1,3]dioxol-5-yl)-1H-pyrrolo[2,3-b]pyridin-5-yl)thiazol-2-yl)morpholine] | > 1000 | > 1000 | > 1000
2 | FC1(F)Oc2ccc(-c3c[nH]c4ncc(-c5ccc(CN6CCCC6)s5)cc34)cc2O1 [Example 203, 3-(2,2-difluorobenzo[d][1,3]dioxol-5-yl)-5-(5-(pyrrolidin-1-ylmethyl)thiophen-2-yl)-1H-pyrrolo[2,3-b]pyridine] | < 100 | > 1000 | > 1000
3 | FC1(F)Oc2ccc(-c3c[nH]c4ncc(-c5ccc(CN6CCCCC6)s5)cc34)cc2O1 [Example 204, 3-(2,2-difluorobenzo[d][1,3]dioxol-5-yl)-5-(5-(piperidin-1-ylmethyl)thiophen-2-yl)-1H-pyrrolo[2,3-b]pyridine] | < 100 | > 100 | < 100
4 | FC1(F)Oc2ccc(-c3c[nH]c4ncc(-c5csc(N6CCOCC6)n5)cc34)cc2O1 [Example 205, 4-(4-(3-(2,2-difluorobenzo[d][1,3]dioxol-5-yl)-1H-pyrrolo[2,3-b]pyridin-5-yl)thiazol-2-yl)morpholine] | < 100 | > 100 | < 100
5 | FC1(F)Oc2ccc(-c3c[nH]c4ncc(-c5cnn(C6CCNCC6)c5)cc34)cc2O1 [Example 206, 3-(2,2-difluorobenzo[d][1,3]dioxol-5-yl)-5-(1-(piperidin-4-yl)-1H-pyrazol-4-yl)-1H-pyrrolo[2,3-b]pyridine] | < 100 | > 100 | < 100
6 | COc1c(F)cccc1-c1c[nH]c2ncc(-c3csc(N4CCOCC4)n3)cc12 [Example 207, 4-(4-(3-(3-fluoro-2-methoxyphenyl)-1H-pyrrolo[2,3-b]pyridin-5-yl)thiazol-2-yl)morpholine] | < 100 | > 100 | < 100
7 | COc1c(F)cc(F)cc1-c1c[nH]c2ncc(-c3csc(N4CCOCC4)n3)cc12 [Example 208, 4-(4-(3-(3,5-difluoro-2-methoxyphenyl)-1H-pyrrolo[2,3-b]pyridin-5-yl)thiazol-2-yl)morpholine] | < 100 | > 100 | < 100
8 | FC1(F)Oc2cccc(-c3c[nH]c4ncc(-c5cnn(C6CCNCC6)c5)cc34)c2O1 [Example 209, 3-(2,2-difluorobenzo[d][1,3]dioxol-4-yl)-5-(1-(piperidin-4-yl)-1H-pyrazol-4-yl)-1H-pyrrolo[2,3-b]pyridine] | < 100 | < 100 | < 100
9 | O=C(c1c(F)cccc1F)c1c[nH]c2ncc(-c3cnn(C4CCNCC4)c3)cc12 [Example 210, (2,6-difluorophenyl)(5-(1-(piperidin-4-yl)-1H-pyrazol-4-yl)-1H-pyrrolo[2,3-b]pyridin-3-yl)methanone] | < 100 | > 100 | < 100
10 | COc1c(F)cc(F)cc1-c1c[nH]c2ncc(-c3cnn(S(=O)(=O)N4CCN(C)CC4)c3)cc12 [Example 211, 3-(3,5-difluoro-2-methoxyphenyl)-5-(1-((4-methylpiperazin-1-yl)sulfonyl)-1H-pyrazol-4-yl)-1H-pyrrolo[2,3-b]pyridine] | < 100 | > 100 | < 100
11 | COc1c(F)cc(F)cc1-c1c[nH]c2ncc(-c3cnn(C4CCN(C)CC4)c3)cc12 [Example 212, 3-(3,5-difluoro-2-methoxyphenyl)-5-(1-(1-methylpiperidin-4-yl)-1H-pyrazol-4-yl)-1H-pyrrolo[2,3-b]pyridine] | < 100 | > 100 | < 100
12 | O=C(c1c(F)cccc1F)c1c[nH]c2ncc(-c3cnc(N4CCOCC4)s3)cc12 [Example 213, (2,6-difluorophenyl)(5-(2-morpholinothiazol-5-yl)-1H-pyrrolo[2,3-b]pyridin-3-yl)methanone] | < 100 | > 100 | < 100
13 | CCS(=O)(=O)N1CCC(n2cc(-c3cnc4[nH]cc(-c5cc(F)cc(F)c5OC)c4c3)cn2)CC1 [Example 215, 3-(3,5-difluoro-2-methoxyphenyl)-5-(1-(1-(ethylsulfonyl)piperidin-4-yl)-1H-pyrazol-4-yl)-1H-pyrrolo[2,3-b]pyridine] | > 100 | > 1000 | > 100
14 | CCCS(=O)(=O)N1CCC(n2cc(-c3cnc4[nH]cc(-c5cc(F)cc(F)c5OC)c4c3)cn2)CC1 [Example 216, 3-(3,5-difluoro-2-methoxyphenyl)-5-(1-(1-(propylsulfonyl)piperidin-4-yl)-1H-pyrazol-4-yl)-1H-pyrrolo[2,3-b]pyridine] | > 100 | > 1000 | > 100
15 | COc1c(F)cc(F)cc1-c1c[nH]c2ncc(-n3cc(N4CCN(S(C)(=O)=O)CC4)cn3)cc12 [Example 217, 3-(3,5-difluoro-2-methoxyphenyl)-5-(4-(4-(methylsulfonyl)piperazin-1-yl)-1H-pyrazol-1-yl)-1H-pyrrolo[2,3-b]pyridine] | < 100 | > 100 | < 100
16 | COc1c(F)cc(F)cc1-c1c[nH]c2ncc(-n3cc(N4CCN(CCO)CC4)cn3)cc12 [Example 218, 2-(4-(1-(3-(3,5-difluoro-2-methoxyphenyl)-1H-pyrrolo[2,3-b]pyridin-5-yl)-1H-pyrazol-4-yl)piperazin-1-yl)ethanol] | < 100 | > 100 | < 100
17 | CN1CCN(S(=O)(=O)n2cc(-c3cnc4[nH]cc(-c5ccc6c(c5)OC(F)(F)O6)c4c3)cn2)CC1 [Example 219, 3-(2,2-difluorobenzo[d][1,3]dioxol-5-yl)-5-(1-((4-methylpiperazin-1-yl)sulfonyl)-1H-pyrazol-4-yl)-1H-pyrrolo[2,3-b]pyridine] | < 100 | > 100 | < 100

The next lines start with the values.

Row | IC50 [1] [nM] | IC50 (SIK1 (SEQ ID NO: 10)) [nM] | IC50 [2] [nM] | Structure (SMILES)
18 | < 100 | > 1000 | > 100 | COc1c(F)cc(F)cc1-c1c[nH]c2ncc(-c3cccc(S(=O)(=O)N(C)C)c3)cc12 [Example 185, 3-(3-(3,5-difluoro-2-methoxyphenyl)-1H-pyrrolo[2,3-b]pyridin-5-yl)-N,N-dimethylbenzenesulfonamide]
19 | < 100 | > 100 | > 100 | Oc1ccccc1-c1c[nH]c2ncc(-c3ccc(CN4CCOCC4)s3)cc12 [Example 192, 2-(5-(5-(morpholinomethyl)thiophen-2-yl)-1H-pyrrolo[2,3-b]pyridin-3-yl)phenol]
20 | < 100 | > 100 | > 100 | Oc1c(F)cccc1-c1c[nH]c2ncc(-c3ccc(CN4CCOCC4)s3)cc12 [Example 193, 2-fluoro-6-(5-(5-(morpholinomethyl)thiophen-2-yl)-1H-pyrrolo[2,3-b]pyridin-3-yl)phenol]
21 | < 100 | > 100 | < 100 | CN(C(C)(C)C)S(=O)(=O)c1cccc(-c2cnc3[nH]cc(-c4cccc5c4OC(F)(F)O5)c3c2)c1 [Example 196, N-(tertbutyl)-3-(3-(2,2-difluorobenzo[d][1,3]dioxol-4-yl)-1H-pyrrolo[2,3-b]pyridin-5-yl)-N-methylbenzene-sulfonamide]
22 | < 100 | > 100 | < 100 | FC1(F)Oc2cccc(-c3c[nH]c4ncc(-c5ccc(CN6CCCC6)s5)cc34)c2O1 [Example 197, 3-(2,2-difluorobenzo[d][1,3]dioxol-4-yl)-5-(5-(pyrrolidin-1-ylmethyl)thiophen-2-yl)-1H-pyrrolo[2,3-b]pyridine]
23 | < 100 | > 100 | < 100 | FC1(F)Oc2cccc(-c3c[nH]c4ncc(-c5ccc(CN6CCCCC6)s5)cc34)c2O1 [Example 198, 3-(2,2-difluorobenzo[d][1,3]dioxol-4-yl)-5-(5-(piperidin-1-ylmethyl)thiophen-2-yl)-1H-pyrrolo[2,3-b]pyridine]
24 | < 100 | > 100 | > 100 | FC1(F)Oc2cccc(-c3c[nH]c4ncc(-c5csc(N6CCOCC6)n5)cc34)c2O1 [Example 199, 4-(4-(3-(2,2-difluorobenzo[d][1,3]dioxol-4-yl)-1H-pyrrolo[2,3-b]pyridin-5-yl)thiazol-2-yl)morpholine]
25 | < 100 | > 100 | < 100 | FC1(F)Oc2ccc(-c3c[nH]c4ncc(-c5ccc(CN6CCOCC6)s5)cc34)cc2O1 [Example 200]
26 | < 100 | > 100 | < 100 | CN(C(C)(C)C)S(=O)(=O)c1cccc(-c2cnc3[nH]cc(-c4ccc5c(c4)OC(F)(F)O5)c3c2)c1 [Example 202, N-(tert-butyl)-3-(3-(2,2-difluorobenzo[d][1,3]dioxol-5-yl) 1H-pyrrolo[2,3-b]pyridin-5-yl)-N-methylbenzenesulfonamide]
